Test results from EP3095787A1, “[…] ACTIVE COMPOUNDS AS DAG-LIPASE INHIBITORS” (Universiteit Leiden, priority 2015, dated 2016).

Biological target: T1, FAAH (Mus musculus, UniProt O08914)
T1 construct: For gel based ABPP experiments mouse brain proteome (2.0 mg/mL, 20 µL) was preincubated; from tissue; host or cells: mouse brain proteome
T1 sequence (O08914 1-579): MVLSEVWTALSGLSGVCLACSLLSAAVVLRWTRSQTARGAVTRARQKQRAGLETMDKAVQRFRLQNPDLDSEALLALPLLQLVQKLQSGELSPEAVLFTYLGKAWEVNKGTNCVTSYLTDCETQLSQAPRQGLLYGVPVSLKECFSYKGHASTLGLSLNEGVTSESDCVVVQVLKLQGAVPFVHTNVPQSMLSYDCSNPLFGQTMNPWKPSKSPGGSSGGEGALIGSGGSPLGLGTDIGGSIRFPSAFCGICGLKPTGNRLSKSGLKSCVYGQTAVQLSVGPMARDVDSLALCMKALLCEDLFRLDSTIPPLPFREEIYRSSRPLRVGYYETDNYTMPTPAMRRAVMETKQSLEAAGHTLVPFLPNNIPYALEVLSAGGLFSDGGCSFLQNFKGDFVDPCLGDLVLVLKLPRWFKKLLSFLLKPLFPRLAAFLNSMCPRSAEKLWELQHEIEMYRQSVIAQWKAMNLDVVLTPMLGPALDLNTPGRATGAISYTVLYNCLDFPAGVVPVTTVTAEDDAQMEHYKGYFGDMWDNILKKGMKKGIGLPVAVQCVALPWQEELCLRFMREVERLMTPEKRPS
Test: Gel based competitive ABPP selectivity assay with TAMRA-FP in mouse brain proteome (FAAH band)
Format: biochemical
Settings: 10 µM inhibitor; TAMRA-FP 500 nM; mouse brain proteome; vehicle set to 100%
Experimental: For gel based ABPP experiments mouse brain proteome (2.0 mg/mL, 20 µL) was preincubated for 30 min with vehicle (DMSO) or compound to be tested in 0.5 µL DMSO at rt. And subsequently treated with 500 nM (final concentration) TAMRA-FP (TAMRA-FP was bought at Thermo Fischer) for 15 minutes at rt. The reactions were quenched with 10 µL standard 3 x SDS page sample buffer. The samples were directly loaded and resolved on SDS page gel (10 % acrylamide). The gels were scanned with a ChemiDoc MP sytem (Biorad, Cy 3 settings, 605/50 filter) and analyzed using Image Lab 4.1.
The percentage effect on FAAH was determined by measuring the integrated optical intensity of the band corresponding to FAAH (∼ 63 kD for mouse) using Image lab software. This activity was corrected for the total protein loading per lane as determined by coomassie staining and imaging with a ChemiDoc™ MP sytem (Biorad) followed by determination of the integrated optical intensity per lane by using Image Lab 4.1 software. The intensity of the protein bands from the samples treated with vehicle was set to 100%. […] N/A means less than 50% probe displacement at 10 µM inhibitor concentration.

Compound | FAAH ABPP (10 µm) % Eff.
COc1ccc(-c2cnc3nc(C(=O)CCCCCc4ccccc4)oc3c2)cc1 [Compound 41, 1-(6-(4-methoxyphenyl)oxazolo[4,5-b]pyridin-2-yl)-6-phenylhexan-1-one] | N/A (N/A means less than 50% probe displacement at 10 µM inhibitor concentration)
O=C(CCCCCc1ccccc1)c1nc2ncc(-c3cccc(Cl)c3)cc2o1 [Compound 39, 1-(6-(3-chlorophenyl)oxazolo[4,5-b]pyridin-2-yl)-6-phenylhexan-1-one] | N/A (N/A means less than 50% probe displacement at 10 µM inhibitor concentration)
Cc1ccc(-c2cnc3nc(C(=O)CCCCC(F)(F)F)oc3c2)cc1 [Compound 43, 6,6,6-trifluoro-1-(6-(p-tolyl)oxazolo[4,5-b]pyridin-2-yl)hexan-1-one] | N/A (N/A means less than 50% probe displacement at 10 µM inhibitor concentration)
Cc1cccc(-c2cnc3nc(C(=O)CCCCCc4ccccc4)oc3c2)c1 [Compound 55, 6-phenyl-1-(6-(m-tolyl)oxazolo[4,5-b]pyridin-2-yl)hexan-1-one] | N/A (N/A means less than 50% probe displacement at 10 µM inhibitor concentration)
Cc1ccccc1-c1cnc2nc(C(=O)CCCCCc3ccccc3)oc2c1 [Compound 54, 6-phenyl-1-(6-(o-tolyl)oxazolo[4,5-b]pyridin-2-yl)hexan-1-one] | N/A (N/A means less than 50% probe displacement at 10 µM inhibitor concentration)
O=C(CCCCCc1ccccc1)c1nc2ncc(-c3ccccn3)cc2o1 [Compound 53, 6-phenyl-1-(6-(pyridin-2-yl)oxazolo[4,5-b]pyridin-2-yl)hexan-1-one] | N/A (N/A means less than 50% probe displacement at 10 µM inhibitor concentration)
Cc1ccc(-c2cnc3nc(C(=O)CCC(F)(F)F)oc3c2)cc1 [Compound 42, 4,4,4-trifluoro-1-(6-(p-tolyl)oxazolo[4,5-b]pyridin-2-yl)butan-1-one] | N/A (N/A means less than 50% probe displacement at 10 µM inhibitor concentration)
O=C(CCCCCc1ccccc1)c1nc2ncc(-c3ccc(F)cc3)cc2o1 [Compound 58, 1-(6-(4-fluorophenyl)oxazolo[4,5-b]pyridin-2-yl)-6-phenylhexan-1-one] | N/A (N/A means less than 50% probe displacement at 10 µM inhibitor concentration)
N#Cc1ccc(-c2cnc3nc(C(=O)CCCCCc4ccccc4)oc3c2)cc1 [Compound 51, 4-(2-(6-phenylhexanoyl)oxazolo[4,5-b]pyridin-6-yl)benzonitrile] | N/A (N/A means less than 50% probe displacement at 10 µM inhibitor concentration)
O=C(CCCCCc1ccccc1)c1nc2ncc(-c3ccccc3Cl)cc2o1 [Compound 38, 1-(6-(2-chlorophenyl)oxazolo[4,5-b]pyridin-2-yl)-6-phenylhexan-1-one] | N/A (N/A means less than 50% probe displacement at 10 µM inhibitor concentration)
O=C(CCCCCc1ccccc1)c1nc2ncc(-c3ccncc3)cc2o1 [Compound 37, 6-phenyl-1-(6-(pyridin-4-yl)oxazolo[4,5-b]pyridin-2-yl)hexan-1-one] | N/A (N/A means less than 50% probe displacement at 10 µM inhibitor concentration)
Cc1ccc(-c2cnc3nc(C(=O)Cc4ccccc4)oc3c2)cc1 [Compound 34, 2-phenyl-1-(6-(p-tolyl)oxazolo[4,5-b]pyridin-2-yl)ethan-1-one] | N/A (N/A means less than 50% probe displacement at 10 µM inhibitor concentration)
Cc1ccc(-c2cnc3nc(C(=O)CCCc4ccccc4)oc3c2)cc1 [Compound 36, 4-phenyl-1-(6-(p-tolyl)oxazolo[4,5-b]pyridin-2-yl)butan-1-one] | N/A (N/A means less than 50% probe displacement at 10 µM inhibitor concentration)
Cn1cccc1-c1cnc2nc(C(=O)CCCCCc3ccccc3)oc2c1 [Compound 46, 1-(6-(1-methyl-1H-pyrrol-2-yl)oxazolo[4,5-b]pyridin-2-yl)-6-phenylhexan-1-one] | N/A (N/A means less than 50% probe displacement at 10 µM inhibitor concentration)
Cc1ccccc1-c1cnc2nc(C(=O)CCCCOc3ccc(F)cc3)oc2c1 [Compound 49, 5-(4-fluorophenoxy)-1-(6-(o-tolyl)oxazolo[4,5-b]pyridin-2-yl)pentan-1-one] | N/A (N/A means less than 50% probe displacement at 10 µM inhibitor concentration)
Cc1ccc(-c2cnc3nc(C(=O)CCc4ccccc4)oc3c2)cc1 [Compound 35, 3-phenyl-1-(6-(p-tolyl)oxazolo[4,5-b]pyridin-2-yl)propan-1-one] | N/A (N/A means less than 50% probe displacement at 10 µM inhibitor concentration)
O=C(CCCCCc1ccccc1)c1nc2ncc(-c3cccs3)cc2o1 [Compound 44, 6-phenyl-1-(6-(thiophen-2-yl)oxazolo[4,5-b]pyridin-2-yl)hexan-1-one] | N/A (N/A means less than 50% probe displacement at 10 µM inhibitor concentration)
Cc1cccc(C)c1-c1cnc2nc(C(=O)CCCCCc3ccccc3)oc2c1 [Compound 50, 1-(6-(2,6-dimethylphenyl)oxazolo[4,5-b]pyridin-2-yl)-6-phenylhexan-1-one] | N/A (N/A means less than 50% probe displacement at 10 µM inhibitor concentration)
Cc1ccccc1-c1cnc2nc(C(=O)CCCCCc3ccc(F)cc3)oc2c1 [Compound 47, 6-(4-fluorophenyl)-1-(6-(o-tolyl)oxazolo[4,5-b]pyridin-2-yl)hexan-1-one] | N/A (N/A means less than 50% probe displacement at 10 µM inhibitor concentration)
O=C(CCCCCc1ccncc1)c1nc2ncc(-c3ccccc3F)cc2o1 [Compound 48, 1-(6-(2-fluorophenyl)oxazolo[4,5-b]pyridin-2-yl)-6-(pyridin-4-yl)hexan-1-one] | N/A (N/A means less than 50% probe displacement at 10 µM inhibitor concentration)
O=C(CCCCCc1ccccc1)c1nc2ncc(-c3cccc(F)c3)cc2o1 [Compound 52, 1-(6-(3-fluorophenyl)oxazolo[4,5-b]pyridin-2-yl)-6-phenylhexan-1-one] | N/A (N/A means less than 50% probe displacement at 10 µM inhibitor concentration)
O=C(CCCCCc1ccccc1)c1nc2ncc(-c3ccc(Cl)cc3)cc2o1 [Compound 40, 1-(6-(4-chlorophenyl)oxazolo[4,5-b]pyridin-2-yl)-6-phenylhexan-1-one] | N/A (N/A means less than 50% probe displacement at 10 µM inhibitor concentration)
O=C(CCCCCc1ccccc1)c1nc2ncc(-c3nnn[nH]3)cc2o1 [Compound 45, 1-(6-(1H-tetrazol-5-yl)oxazolo[4,5-b]pyridin-2-yl)-6-phenylhexan-1-one] | N/A (N/A means less than 50% probe displacement at 10 µM inhibitor concentration)
O=C(CCCCCc1ccccc1)c1nc2ncc(-c3ccccc3F)cc2o1 [Compound 57, 1-(6-(2-fluorophenyl)oxazolo[4,5-b]pyridin-2-yl)-6-phenylhexan-1-one] | N/A (N/A means less than 50% probe displacement at 10 µM inhibitor concentration)
